{"source": "patent US10787452B2", "about": "(Vertex Pharmaceuticals Incorporated, priority 2012, dated 2020)", "data": [{"tested_on": "HCT116 colorectal cancer cells", "assay": "Cisplatin sensitization assay (96 h cell viability MTS);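 note: compound concentration needed to lower the Cisplatin-alone IC50 by a set fold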", "assay_type": "cell-based", "details": "96 h MTS, compound plus Cisplatin", "method_in_brief": "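Simultaneous addition of compound and cisplatin (2-fold series, top 10 μM final, full matrix), followed by 96 h culture at 37° C/5% CO2 and a 1 h MTS viability read.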", "values": [{"smiles": "Nc1nn2cc(F)cnc2c1C(=O)Nc1cnccc1N1CCC(C(=O)N2CC3(COC3)C2)CC1", "note": "[I-G-88, N-(4-(4-(2-oxa-6-azaspiro[3.3]heptane-6-carbonyl)piperidin-1-yl)pyridin-3-yl)-2-amino-6-fluoropyrazolo[1,5-a]pyrimidine-3-carboxamide]", "Cisplatin Sensitization Assay": "+++ (Compounds with a Cisplatin sensitization value of <0.02 μM are marked with “+++.”)"}, {"smiles": "CN1CC2(CCC1=O)CCN(c1ccncc1NC(=O)c1c(N)nn3cc(F)cnc13)CC2", "note": "[I-N-231, 2-amino-6-fluoro-N-(4-(2-methyl-3-oxo-2,9-diazaspiro[5.5]undecan-9-yl)pyridin-3-yl)pyrazolo[1,5-a]pyrimidine-3-carboxamide]", "Cisplatin Sensitization Assay": "+++ (Compounds with a Cisplatin sensitization value of <0.02 μM are marked with “+++.”)"}, {"smiles": "Nc1nn2cc(Cl)cnc2c1C(=O)Nc1cnccc1OCCO", "note": "[I-O-66, 2-amino-6-chloro-N-(4-(2-hydroxyethoxy)pyridin-3-yl)pyrazolo[1,5-a]pyrimidine-3-carboxamide]", "Cisplatin Sensitization Assay": "+ (Compounds with a Cisplatin sensitization value >0.2 μM but <5 μM are marked with “+.”)"}, {"smiles": "Nc1nn2cc(F)cnc2c1C(=O)Nc1cncc(F)c1N1CCC(C(=O)N2CCC(N3CCCC3)CC2)CC1", "note": "[I-G-59, 2-amino-6-fluoro-N-(5-fluoro-4-(4-(4-(pyrrolidin-1-yl)piperidine-1-carbonyl)piperidin-1-yl)pyridin-3-yl)pyrazolo[1,5-a]pyrimidine-3-carboxamide]", "Cisplatin Sensitization Assay": "+++ (Compounds with a Cisplatin sensitization value of <0.02 μM are marked with “+++.”)"}, {"smiles": "CN1CCN(c2cc(N)ncc2NC(=O)c2c(N)nn3cc(Cl)cnc23)CC1", "note": "[I-N-50, 2-amino-N-(6-amino-4-(4-methylpiperazin-1-yl)pyridin-3-yl)-6-chloropyrazolo[1,5-a]pyrimidine-3-carboxamide]", "Cisplatin Sensitization Assay": "+ (Compounds with a Cisplatin sensitization value >0.2 μM but <5 μM are marked with “+.”)"}, {"smiles": "C[C@@H]1CN(C(=O)C2CCN(c3c(F)cncc3NC(=O)c3c(N)nn4cc(F)cnc34)CC2)CCN1", "note": "[I-G-45, (R)-2-amino-6-fluoro-N-(5-fluoro-4-(4-(3-methylpiperazine-1-carbonyl)piperidin-1-yl)pyridin-3-yl)pyrazolo[1,5-a]pyrimidine-3-carboxamide]", "Cisplatin Sensitization Assay": "+++ (Compounds with a Cisplatin sensitization value of <0.02 μM are marked with “+++.”)"}, {"smiles": "Nc1nn2cc(F)cnc2c1C(=O)Nc1cncc(F)c1N1CCC(C(=O)N2CCC(N3CCCCC3)C2)CC1", "note": "(centres unmarked) [I-G-64, 2-amino-6-fluoro-N-(5-fluoro-4-(4-(3-(piperidin-1-yl)pyrrolidine-1-carbonyl)piperidin-1-yl)pyridin-3-yl)pyrazolo[1,5-a]pyrimidine-3-carboxamide]", "Cisplatin Sensitization Assay": "+++ (Compounds with a Cisplatin sensitization value of <0.02 μM are marked with “+++.”)"}, {"smiles": "Nc1nn2cc(Cl)cnc2c1C(=O)Nc1cnccc1N1CCNCC1", "note": "[I-N-88, 2-amino-6-chloro-N-(4-(piperazin-1-yl)pyridin-3-yl)pyrazolo[1,5-a]pyrimidine-3-carboxamide]", "Cisplatin Sensitization Assay": "++ (Compounds with a Cisplatin sensitization value >0.02 μM but <0.2 μM are marked with “++.”)"}, {"smiles": "Nc1nn2cc(F)cnc2c1C(=O)Nc1cnccc1N1CCN2CCOC[C@@H]2C1", "note": "[I-N-115, (S)-2-amino-6-fluoro-N-(4-(hexahydropyrazino[2,1-c][1,4]oxazin-8(1H)-yl)pyridin-3-yl)pyrazolo[1,5-a]pyrimidine-3-carboxamide]", "Cisplatin Sensitization Assay": "+++ (Compounds with a Cisplatin sensitization value of <0.02 μM are marked with “+++.”)"}, {"smiles": "Nc1nn2cc(F)cnc2c1C(=O)Nc1cncc(F)c1N1CCN(C(=O)C2CNCCO2)CC1", "note": "(centres unmarked) [I-N-172, 2-amino-6-fluoro-N-(5-fluoro-4-(4-(morpholine-2-carbonyl)piperazin-1-yl)pyridin-3-yl)pyrazolo[1,5-a]pyrimidine-3-carboxamide]", "Cisplatin Sensitization Assay": "+++ (Compounds with a Cisplatin sensitization value of <0.02 μM are marked with “+++.”)"}, {"smiles": "CN1CCN(CC2CCN(c3c(F)cncc3NC(=O)c3c(N)nn4cc(F)cnc34)CC2)CC1=O", "note": "[I-N-171, 2-amino-6-fluoro-N-(5-fluoro-4-(4-((4-methyl-3-oxopiperazin-1-yl)methyl)piperidin-1-yl)pyridin-3-yl)pyrazolo[1,5-a]pyrimidine-3-carboxamide]", "Cisplatin Sensitization Assay": "+++ (Compounds with a Cisplatin sensitization value of <0.02 μM are marked with “+++.”)"}, {"smiles": "N#CCc1cnc2c(C(=O)Nc3cnccc3N3CCC(O)CC3)c(N)nn2c1", "note": "[I-N-83, 2-amino-6-(cyanomethyl)-N-(4-(4-hydroxypiperidin-1-yl)pyridin-3-yl)pyrazolo[1,5-a]pyrimidine-3-carboxamide]", "Cisplatin Sensitization Assay": "++ (Compounds with a Cisplatin sensitization value >0.02 μM but <0.2 μM are marked with “++.”)"}, {"smiles": "CS(=O)(=O)c1ccc(-c2ccncc2NC(=O)c2c(N)nn3cc(F)cnc23)cc1", "note": "[I-C-61, 2-amino-6-fluoro-N-(4-(4-(methylsulfonyl)phenyl)pyridin-3-yl)pyrazolo[1,5-a]pyrimidine-3-carboxamide]", "Cisplatin Sensitization Assay": "+++ (Compounds with a Cisplatin sensitization value of <0.02 μM are marked with “+++.”)"}, {"smiles": "Cc1cncnc1-c1ccncc1NC(=O)c1c(N)nn2cc(F)cnc12", "note": "[I-C-67, 2-amino-6-fluoro-N-(4-(5-methylpyrimidin-4-yl)pyridin-3-yl)pyrazolo[1,5-a]pyrimidine-3-carboxamide]", "Cisplatin Sensitization Assay": "++ (Compounds with a Cisplatin sensitization value >0.02 μM but <0.2 μM are marked with “++.”)"}, {"smiles": "CC(C)(C)NC(=O)C1CCN(c2c(F)cncc2NC(=O)c2c(N)nn3cc(F)cnc23)CC1", "note": "[I-G-19, 2-amino-N-(4-(4-(tert-butylcarbamoyl)piperidin-1-yl)-5-fluoropyridin-3-yl)-6-fluoropyrazolo[1,5-a]pyrimidine-3-carboxamide]", "Cisplatin Sensitization Assay": "++ (Compounds with a Cisplatin sensitization value >0.02 μM but <0.2 μM are marked with “++.”)"}, {"smiles": "Nc1nn2cc(F)cnc2c1C(=O)Nc1cncc(F)c1N1CCC(C(=O)N2CCNCC2)CC1", "note": "[I-G-12, 2-amino-6-fluoro-N-(5-fluoro-4-(4-(piperazine-1-carbonyl)piperidin-1-yl)pyridin-3-yl)pyrazolo[1,5-a]pyrimidine-3-carboxamide]", "Cisplatin Sensitization Assay": "+++ (Compounds with a Cisplatin sensitization value of <0.02 μM are marked with “+++.”)"}, {"smiles": "Nc1nn2cc(F)cnc2c1C(=O)Nc1cncc(F)c1N1CCN(C2CCOC2)CC1", "note": "(centres unmarked) [I-N-122, 2-amino-6-fluoro-N-(5-fluoro-4-(4-(tetrahydrofuran-3-yl)piperazin-1-yl)pyridin-3-yl)pyrazolo[1,5-a]pyrimidine-3-carboxamide]", "Cisplatin Sensitization Assay": "++ (Compounds with a Cisplatin sensitization value >0.02 μM but <0.2 μM are marked with “++.”)"}, {"smiles": "CN1CCC(S(=O)(=O)N2CCN(c3ccncc3NC(=O)c3c(N)nn4cc(F)cnc34)CC2)CC1", "note": "[I-N-188, 2-amino-6-fluoro-N-(4-(4-((1-methylpiperidin-4-yl)sulfonyl)piperazin-1-yl)pyridin-3-yl)pyrazolo[1,5-a]pyrimidine-3-carboxamide]", "Cisplatin Sensitization Assay": "+++ (Compounds with a Cisplatin sensitization value of <0.02 μM are marked with “+++.”)"}, {"smiles": "CS(=O)(=O)C1CCN(c2c(Cl)cncc2NC(=O)c2c(N)nn3cc(F)cnc23)C1", "note": "(centres unmarked) [I-N-287, 2-amino-N-(5-chloro-4-(3-(methylsulfonyl)pyrrolidin-1-yl)pyridin-3-yl)-6-fluoropyrazolo[1,5-a]pyrimidine-3-carboxamide]", "Cisplatin Sensitization Assay": "+++ (Compounds with a Cisplatin sensitization value of <0.02 μM are marked with “+++.”)"}, {"smiles": "CN1CCN(C(=O)C2CCN(c3c(F)cncc3NC(=O)c3c(N)nn4cc(Cl)cnc34)CC2)CC1", "note": "[I-G-5, 2-amino-6-chloro-N-(5-fluoro-4-(4-(4-methylpiperazine-1-carbonyl)piperidin-1-yl)pyridin-3-yl)pyrazolo[1,5-a]pyrimidine-3-carboxamide]", "Cisplatin Sensitization Assay": "+++ (Compounds with a Cisplatin sensitization value of <0.02 μM are marked with “+++.”)"}, {"smiles": "CN1CCC(Oc2c(Cl)cncc2NC(=O)c2c(N)nn3cc(Cl)cnc23)CC1", "note": "[I-O-46, 2-amino-6-chloro-N-(5-chloro-4-((1-methylpiperidin-4-yl)oxy)pyridin-3-yl)pyrazolo[1,5-a]pyrimidine-3-carboxamide]", "Cisplatin Sensitization Assay": "+ (Compounds with a Cisplatin sensitization value >0.2 μM but <5 μM are marked with “+.”)"}, {"smiles": "CN1CCCN(c2ccncc2NC(=O)c2c(N)nn3cc(Cl)cnc23)CC1", "note": "[I-N-43, 2-amino-6-chloro-N-(4-(4-methyl-1,4-diazepan-1-yl)pyridin-3-yl)pyrazolo[1,5-a]pyrimidine-3-carboxamide]", "Cisplatin Sensitization Assay": "++ (Compounds with a Cisplatin sensitization value >0.02 μM but <0.2 μM are marked with “++.”)"}, {"smiles": "CN1CC2CN(c3c(Cl)cncc3NC(=O)c3c(N)nn4cc(F)cnc34)CC2C1", "note": "(centres unmarked) [I-N-286, 2-amino-N-(5-chloro-4-(5-methylhexahydropyrrolo[3,4-c]pyrrol-2(1H)-yl)pyridin-3-yl)-6-fluoropyrazolo[1,5-a]pyrimidine-3-carboxamide]", "Cisplatin Sensitization Assay": "++ (Compounds with a Cisplatin sensitization value >0.02 μM but <0.2 μM are marked with “++.”)"}, {"smiles": "CC(C)Oc1ccncc1NC(=O)c1c(N)nn2cc(CC#N)cnc12", "note": "[I-O-35, 2-amino-6-(cyanomethyl)-N-(4-isopropoxypyridin-3-yl)pyrazolo[1,5-a]pyrimidine-3-carboxamide]", "Cisplatin Sensitization Assay": "+++ (Compounds with a Cisplatin sensitization value of <0.02 μM are marked with “+++.”)"}, {"smiles": "Nc1nn2cc(F)cnc2c1C(=O)Nc1cnccc1-c1ccc(C(=O)N2CCN(C3COC3)CC2)nc1", "note": "[I-C-52, 2-amino-6-fluoro-N-(6-(4-(oxetan-3-yl)piperazine-1-carbonyl)-[3,4′-bipyridin]-3′-yl)pyrazolo[1,5-a]pyrimidine-3-carboxamide]", "Cisplatin Sensitization Assay": "++ (Compounds with a Cisplatin sensitization value >0.02 μM but <0.2 μM are marked with “++.”)"}, {"smiles": "Nc1nn2cc(F)cnc2c1C(=O)Nc1cncc(F)c1N1CCN2C(=O)CCC2C1", "note": "(centres unmarked) [I-N-163, 2-amino-6-fluoro-N-(5-fluoro-4-(6-oxohexahydropyrrolo[1,2-a]pyrazin-2(1H)-yl)pyridin-3-yl)pyrazolo[1,5-a]pyrimidine-3-carboxamide]", "Cisplatin Sensitization Assay": "+++ (Compounds with a Cisplatin sensitization value of <0.02 μM are marked with “+++.”)"}]}]}
